# According to ChEMBL document CHEMBL1201862, “PubChem BioAssay data set” (2004):
# The source made the active and inactive calls.
# Columns and labels:
# [1] = Luminescence Cell-Based Dose Confirmation HTS to Identify Activators of 5'UTR Stem-Loop Driven Alpha-Synuclein mRNA Translation in H4 Neuroglioblastoma Cells. [Related pubchem assays: 1829 (Project Summary), 1814 (Primary HTS)]; assay type: functional
# [2] = system: H4; assay: Luminescence Cell-Based Dose Response HTS to Identify Activators of 5'UTR Stem-Loop Driven Prion Protein mRNA Translation in H4 Neuroglioblastoma Cells. [Related pubchem assays: 1829 (Project Summary), 1814 (Primary HTS)]; assay type: functional; details: Homo sapiens
# [3] = Luminescence Cell-Based Dose Response HTS to Identify Activators of Luciferase Translation or Activity in H4 […] Cells. [Related pubchem assays: 1829 (Project Summary), 1814 (Primary HTS)]; assay type: functional
# [4] = biological target: T1, Protein RecA (Mycobacterium tuberculosis, UniProt P9WHJ3); assay: Fluorescence Cell-Free Homogeneous Dose Retest to Identify Inhibitors of RecA-Intein Splicing Activity. [Related pubchem assays (depositor defined):AID2097, AID2223, AID489010, AID492950]; assay type: functional
# T1 sequence (P9WHJ3 whole entry): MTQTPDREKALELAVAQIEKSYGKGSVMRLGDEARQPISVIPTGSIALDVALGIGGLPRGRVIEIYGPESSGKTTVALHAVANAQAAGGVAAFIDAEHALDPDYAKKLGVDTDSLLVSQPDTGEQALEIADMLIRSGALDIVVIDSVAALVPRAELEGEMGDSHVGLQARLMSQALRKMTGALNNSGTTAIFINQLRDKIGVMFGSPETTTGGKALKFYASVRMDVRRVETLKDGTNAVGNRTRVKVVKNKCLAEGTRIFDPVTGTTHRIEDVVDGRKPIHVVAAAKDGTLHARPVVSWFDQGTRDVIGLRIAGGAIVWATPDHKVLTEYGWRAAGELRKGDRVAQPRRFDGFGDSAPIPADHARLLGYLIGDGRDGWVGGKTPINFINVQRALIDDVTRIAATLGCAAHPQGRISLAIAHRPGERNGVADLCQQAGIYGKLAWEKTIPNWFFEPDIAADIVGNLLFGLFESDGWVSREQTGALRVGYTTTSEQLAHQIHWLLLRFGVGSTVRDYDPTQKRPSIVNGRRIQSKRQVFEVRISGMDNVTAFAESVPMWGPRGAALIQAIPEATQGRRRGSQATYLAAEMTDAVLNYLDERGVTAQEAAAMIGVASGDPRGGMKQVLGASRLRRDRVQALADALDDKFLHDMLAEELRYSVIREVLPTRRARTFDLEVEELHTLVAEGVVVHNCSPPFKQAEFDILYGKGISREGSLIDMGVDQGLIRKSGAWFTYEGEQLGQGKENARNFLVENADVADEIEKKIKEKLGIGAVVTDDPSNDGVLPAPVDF
# [5] = biological target: T2, Replicative DNA helicase DnaB (Mycobacterium tuberculosis, UniProt P9WMR3); assay: DnaB intein splicing inhibitors, dose response, biochemical, cell-free fluorescence (AID 449749); assay type: functional
# T2 sequence (P9WMR3 whole entry): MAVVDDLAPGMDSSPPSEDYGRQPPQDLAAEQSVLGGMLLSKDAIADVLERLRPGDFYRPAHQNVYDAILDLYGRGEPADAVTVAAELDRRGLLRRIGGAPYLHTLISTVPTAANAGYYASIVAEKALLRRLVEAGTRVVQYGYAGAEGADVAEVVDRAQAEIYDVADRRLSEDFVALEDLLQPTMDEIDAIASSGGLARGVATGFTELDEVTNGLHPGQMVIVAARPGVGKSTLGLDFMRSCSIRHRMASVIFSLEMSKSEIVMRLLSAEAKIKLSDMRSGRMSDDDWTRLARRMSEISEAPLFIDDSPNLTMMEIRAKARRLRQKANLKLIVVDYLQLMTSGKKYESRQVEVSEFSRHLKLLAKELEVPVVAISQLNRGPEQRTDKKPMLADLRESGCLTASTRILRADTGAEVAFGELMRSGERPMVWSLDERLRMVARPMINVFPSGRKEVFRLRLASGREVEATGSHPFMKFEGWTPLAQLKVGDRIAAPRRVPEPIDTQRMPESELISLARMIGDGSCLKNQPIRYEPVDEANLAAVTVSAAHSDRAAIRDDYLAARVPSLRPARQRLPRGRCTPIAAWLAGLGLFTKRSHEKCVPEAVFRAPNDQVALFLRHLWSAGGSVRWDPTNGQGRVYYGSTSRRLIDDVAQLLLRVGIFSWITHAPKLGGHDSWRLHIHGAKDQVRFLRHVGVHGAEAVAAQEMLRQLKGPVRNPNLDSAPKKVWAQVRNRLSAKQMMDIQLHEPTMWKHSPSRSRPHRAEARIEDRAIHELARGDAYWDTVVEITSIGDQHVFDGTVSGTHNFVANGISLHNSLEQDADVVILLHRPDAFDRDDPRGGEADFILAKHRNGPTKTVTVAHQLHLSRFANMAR
# [6] = system: H9c2; assay: cells; assay type: functional, cell-based; details: Rattus norvegicus, H9c2, Myocardium;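 further: confirmatory concentration-response retest of ultra-high-throughput screening hits for modulation of myocardial damage; cell death induced by hydrogen peroxide oxidative stress; compound pretreatment for 60 min then peroxide exposure for 2 h; potency is for protecting the cells against peroxide damage rather than for killing them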
# [7] = Luminescence Cell-Based Dose Retest to Confirm Inhibitors of Cancer Stem Cells. [Related pubchem assays (depositor defined):AID2717, AID2721]; assay type: functional; details: Homo sapiens
# [8] = biological target: T3, Corticotropin-releasing factor receptor 2/Corticotropin-releasing factor-binding protein (Homo sapiens, UniProt P24387+Q13324); assay: Dose Response confirmation of uHTS hits for small molecule antagonists of the CRF-binding protein and CRF-R2 receptor complex.; assay type: functional; details: read-out: IC50_Mean
# T3 sequence (Q13324 whole entry): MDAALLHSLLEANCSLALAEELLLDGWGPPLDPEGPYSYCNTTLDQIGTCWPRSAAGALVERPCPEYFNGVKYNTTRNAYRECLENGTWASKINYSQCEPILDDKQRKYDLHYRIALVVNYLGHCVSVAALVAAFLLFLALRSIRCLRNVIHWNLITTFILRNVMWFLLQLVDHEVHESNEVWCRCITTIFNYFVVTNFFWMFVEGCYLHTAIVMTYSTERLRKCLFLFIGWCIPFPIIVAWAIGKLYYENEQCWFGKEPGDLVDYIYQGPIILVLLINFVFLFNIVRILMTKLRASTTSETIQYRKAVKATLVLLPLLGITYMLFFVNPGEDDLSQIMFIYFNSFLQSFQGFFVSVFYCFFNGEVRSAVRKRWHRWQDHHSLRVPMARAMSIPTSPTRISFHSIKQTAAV
# T3 sequence (P24387 whole entry): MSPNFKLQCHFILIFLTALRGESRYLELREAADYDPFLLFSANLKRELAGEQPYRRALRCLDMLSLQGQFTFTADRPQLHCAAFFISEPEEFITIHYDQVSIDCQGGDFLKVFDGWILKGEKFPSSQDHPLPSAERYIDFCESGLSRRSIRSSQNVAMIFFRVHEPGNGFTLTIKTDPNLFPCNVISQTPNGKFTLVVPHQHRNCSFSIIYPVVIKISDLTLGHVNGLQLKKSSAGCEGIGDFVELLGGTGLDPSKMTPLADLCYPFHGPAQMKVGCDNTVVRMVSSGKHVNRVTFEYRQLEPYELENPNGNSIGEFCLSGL
# [9] = biological target: T3, Corticotropin-releasing factor receptor 2/Corticotropin-releasing factor-binding protein; assay: activators of CRF receptor 2 with binding protein – uHTS hits, confirmation (AID 602473); assay type: functional; details: read-out: EC50_Mean
# [10] = viability of HCT116 lacking mutant beta-catenin – cell-based, human colon tumor, dose response (AID 1045); assay type: functional;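 further: HCT116 colon tumor cells with beta catenin knocked out; cells exposed to compound for 60 hours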
# [11] = viability of PTEN-deleted HCT116 cells – cell-based, HCT116 PTEN knockout, dose response (AID 1047); assay type: functional;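 further: HCT116 colon tumor cells with PTEN knocked out; cells exposed to compound for 60 hours before readout; potency for loss of cell viability measured by luminescence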
# [12] = biological target: T4, Heat shock factor protein 1 (Mus musculus, UniProt P38532); assay: enhancement of HSF1-driven luciferase signal – cell-based, NIH3T3, luminescence, dose retest, confirmation (AID 435004); assay type: functional;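 further: stress induced by proteasome inhibitor MG132 added 30 min after compound; luciferase reporter driven by HSF1 response element in NIH3T3 cells; actives raise luminescence as potentiators of the MG132 stress response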
# T4 sequence (P38532 whole entry): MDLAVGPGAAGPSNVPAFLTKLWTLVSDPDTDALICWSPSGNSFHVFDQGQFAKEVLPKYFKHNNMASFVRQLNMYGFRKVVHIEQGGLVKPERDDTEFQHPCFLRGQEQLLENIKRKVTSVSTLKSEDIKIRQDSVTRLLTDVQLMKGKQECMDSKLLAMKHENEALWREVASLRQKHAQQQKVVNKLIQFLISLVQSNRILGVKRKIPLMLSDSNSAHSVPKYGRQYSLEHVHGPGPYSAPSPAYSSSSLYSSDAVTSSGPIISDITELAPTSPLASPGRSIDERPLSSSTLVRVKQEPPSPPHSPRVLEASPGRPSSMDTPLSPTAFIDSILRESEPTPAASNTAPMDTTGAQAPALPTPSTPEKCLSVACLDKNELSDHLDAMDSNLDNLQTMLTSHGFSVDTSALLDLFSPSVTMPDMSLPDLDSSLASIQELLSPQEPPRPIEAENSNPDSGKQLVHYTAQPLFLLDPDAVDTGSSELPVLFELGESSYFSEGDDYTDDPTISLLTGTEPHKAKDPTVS
# [13] = biological target: Cytochrome P450 2C9 (Homo sapiens, UniProt P11712)
# Chain of Cytochrome P450 2C9 (P11712 whole entry): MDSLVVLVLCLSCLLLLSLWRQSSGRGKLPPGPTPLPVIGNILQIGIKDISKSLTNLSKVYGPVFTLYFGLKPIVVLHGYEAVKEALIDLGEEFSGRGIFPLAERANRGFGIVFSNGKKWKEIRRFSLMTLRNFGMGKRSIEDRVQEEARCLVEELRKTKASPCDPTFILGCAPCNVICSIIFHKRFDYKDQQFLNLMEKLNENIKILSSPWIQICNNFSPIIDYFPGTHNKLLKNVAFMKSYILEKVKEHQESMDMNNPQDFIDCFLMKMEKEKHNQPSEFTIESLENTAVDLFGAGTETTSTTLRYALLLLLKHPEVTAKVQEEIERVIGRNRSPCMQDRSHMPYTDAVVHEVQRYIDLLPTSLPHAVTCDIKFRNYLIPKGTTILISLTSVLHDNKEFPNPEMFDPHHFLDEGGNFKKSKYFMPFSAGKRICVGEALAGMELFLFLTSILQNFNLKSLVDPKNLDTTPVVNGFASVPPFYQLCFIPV
# [14] = biological target: Cytochrome P450 2C19 (Homo sapiens, UniProt P33261); assay: Cytochrome panel assay with activity outcomes. Panel member name: p450-cyp2c19 Compounds with AC50 equal or less than 10 uM are considered active; assay type: functional; details: read-out: AC50
# Chain of Cytochrome P450 2C19 (P33261 whole entry): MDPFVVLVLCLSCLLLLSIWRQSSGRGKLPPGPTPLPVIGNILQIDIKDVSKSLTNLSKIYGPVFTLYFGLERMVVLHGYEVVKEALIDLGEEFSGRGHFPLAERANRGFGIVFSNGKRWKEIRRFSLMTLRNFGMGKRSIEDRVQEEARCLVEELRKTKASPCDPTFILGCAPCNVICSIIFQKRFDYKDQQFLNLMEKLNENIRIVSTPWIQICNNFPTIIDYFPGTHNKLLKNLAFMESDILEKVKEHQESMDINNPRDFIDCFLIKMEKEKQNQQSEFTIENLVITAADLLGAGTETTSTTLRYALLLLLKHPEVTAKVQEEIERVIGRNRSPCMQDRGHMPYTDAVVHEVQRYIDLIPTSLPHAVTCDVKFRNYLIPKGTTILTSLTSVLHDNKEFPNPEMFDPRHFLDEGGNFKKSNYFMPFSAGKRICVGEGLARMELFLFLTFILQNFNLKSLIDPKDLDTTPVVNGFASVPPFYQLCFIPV
compound,measurement,setting,value
Cc1cn(CCC(=O)Nc2ccc(N3CCOCC3)cc2)c2ccccc12,EC50,[1],11.5 µM (active)
same,EC50,[2],13.9 µM (active)
same,EC50,[3],16.1 µM (active)
COc1ccc(OCc2cc(C(=O)N3CCCC(OC)C3)no2)c2ccccc12 (stereo not given),EC50,[4],3.9 µM (active)
same,AC50,[5],15 µM (active)
Fc1cccc2sc(Nc3nc4ccccc4s3)nc12,EC50,[1],0.106 µM (active)
same,EC50,[2],1.58 µM (active)
same,EC50,[3],4.21 µM (active)
O=C(O)c1nn(CC(=O)N2CCN(c3ccccc3)CC2)c(=O)c2ccccc12,IC50,[6],31 µM (inactive)
COC(=O)c1ccc(S(=O)(=O)N2CCc3ccccc32)cc1,EC50,[1],> 120 µM (not active)
same,EC50,[2],> 120 µM (not active)
same,EC50,[3],> 60 µM (not active)
CN1CCc2nc(SCC(=O)OC(C)(C)C)c(C#N)cc2C1,EC50,[1],20.8 µM (active)
same,EC50,[2],108 µM (active)
same,EC50,[3],15.4 µM (active)
CCOC(=O)c1c(C)sc2c1N(C(=O)CCl)c1cc(Cl)ccc1S2,AC50,[7],2.22 µM (active)
same,EC50,[4],0.506 µM (active)
same,AC50,[5],3.1 µM (active)
CCSc1nnc(N)s1,IC50,[6],> 79 µM (inactive)
Cc1nn(-c2ccc(N3CCCCC3)nn2)c(C)c1CCC(=O)Nc1cccc(F)c1,EC50,[1],20.8 µM (active)
same,EC50,[3],2.66 µM (active)
CC1CCCC(C)N1C(=O)COC(=O)c1cccs1 (stereo not given),IC50,[8],> 47.1 µM (inactive)
same,EC50,[9],> 53 µM (inactive)
Cc1c(C=O)c2ccccn2c1C(=O)c1ccc(Cl)c([N+](=O)[O-])c1,IC50,[6],> 79 µM (inactive)
COC(=O)c1ccc(Cc2ccccc2)o1,IC50,[8],> 47.1 µM (inactive)
same,EC50,[9],> 53 µM (inactive)
O=C(N/N=C/c1ccccn1)c1cc(C2CC2)nc2ccccc12,IC50,[6],> 79 µM (inactive)
CCOC(=O)c1nnn(CC(=O)N2N=C(c3ccccc3)CC2c2ccccc2)c1C(=O)OCC (stereo not given),IC50,[8],> 47.1 µM (inactive)
same,EC50,[9],> 53 µM (inactive)
O=C(Oc1ccccc1N1C(=O)CCC1=O)c1ccco1,EC50,[4],14.8 µM (active)
same,AC50,[5],6.7 µM (active)
CC(C)(C)c1nn(-c2ccccc2)c2nc(O)c(CNCc3ccco3)cc12,EC50,[10],9.2 µM (active)
same,IC50,[6],> 79 µM (inactive)
same,EC50,[11],7.45 µM (active)
CC(=O)C12CC(C)=C(C)CC1CC1C3CCC4=CC(=O)CCC4(C)C3CCC12C (stereo not given),AC50,[7],5.78 µM (active)
same,EC50,[4],289 µM (inconclusive)
same,AC50,[5],3.05 µM (active)
Oc1nc(N2CCN(c3ccccc3)CC2)nc2c1CCC2,IC50,[6],54.4 µM (inactive)
same,EC50,[12],> 260 µM (inactive)
CC1=C(C(=O)OCc2ccccc2)C(/C=C/c2ccccc2)N2C(=O)CCSC2=N1 (stereo not given),IC50,[8],> 47.1 µM (inactive)
same,EC50,[9],> 53 µM (inactive)
O=C(COc1cccc(NC(=O)c2cccc([N+](=O)[O-])c2)c1)c1ccc(F)cc1,IC50,[6],> 79 µM (inactive)
O=c1cc(-c2ccc([N+](=O)[O-])cc2)c2ccc(O)cc2o1,IC50,[6],> 79 µM (inactive)
COC(=O)c1ccc2nc3c(cc2c1)[C@@H]1CCN2C(=O)CCC[C@H](C3)[C@H]12,IC50,[8],> 47.1 µM (inactive)
same,EC50,[9],> 53 µM (inactive)
COc1ccc(S(=O)(=O)N(CCCN2CCCC2=O)Cc2cc3cc(C)c(C)cc3nc2O)cc1,IC50,[6],> 79 µM (inactive)
Cc1ccc(C(=O)COC(=O)CCN2C(=O)C3C4C=CC(C5CC45)C3C2=O)cc1 (stereo not given),IC50,[8],> 47.1 µM (inactive)
same,EC50,[9],> 53 µM (inactive)
CCCCNc1nc(CC)c2c(c1C#N)CCCC2,IC50,[8],> 47.1 µM (inactive)
same,EC50,[9],> 53 µM (inactive)
CCOC(=O)c1cccc(NS(=O)(=O)Cc2ccccc2)c1,IC50,[8],> 47.1 µM (inactive)
same,EC50,[9],> 53 µM (inactive)
COCCn1c(-c2ccsc2)nc2c1c(=O)[nH]c(=O)n2CC(C)C,IC50,[8],> 47.1 µM (inactive)
same,EC50,[9],> 53 µM (inactive)
COC(=O)c1c(C)[nH]c(C(=O)COc2ccc3ccc(=O)oc3c2)c1C,IC50,[6],> 79 µM (inactive)
O=[N+]([O-])C(/C=C(\Cl)[N+](=O)[O-])=C1N(Cc2ccc(Cl)nc2)CCN1Cc1ccc(Cl)nc1,AC50,[13],12.6 µM (inconclusive)
same,AC50,[14],31.6 µM (inconclusive)
same,EC50,[4],8.49 µM (active)
same,AC50,[5],11.4 µM (active)
CC1(NC(=O)CCc2nc(O)c3ccccc3n2)CCS(=O)(=O)C1 (stereo not given),IC50,[6],> 79 µM (inactive)
